Experimental data published in patent US9492471B2, “Methods of treating a disease or disorder associated with Bruton'S Tyrosine Kinase” (Celgene Avilomics Research, Inc., priority 2013, dated 2016).
Where two headings read alike, the source gives them in different places.

Columns and labels:
Experiment in all cases: HotSpot kinase profiling
Assay type in all cases: biochemical
HIPK3 = target: T1, HIPK3 (Homo sapiens, UniProt Q9H422)
T1 construct: purchased Reaction Biology Corp
Summary of the method: (§1)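 P81 filtration radiometric readout; 2 h incubation at room temperature; 0.1% phosphoric acid wash; DMSO negative control; % inhibition, mean of replicate runs.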

TRKB = target: T2, TRKB (Homo sapiens, UniProt Q16620)
T2 construct: purchased Reaction Biology Corp
Summary of the method: as §1

PKN2/PRK2 = target: T3, PKN2/PRK2 (Homo sapiens, UniProt Q16513)
T3 construct: purchased Reaction Biology Corp
Summary of the method: as §1

CAMKK1 = target: T4, CAMKK1 (Homo sapiens, UniProt Q8N5S9)
T4 construct: purchased Reaction Biology Corp
Summary of the method: as §1

STK16 = target: T5, STK16 (Homo sapiens, UniProt O75716)
T5 construct: purchased Reaction Biology Corp
Summary of the method: as §1

ALK6/BMPR1B = target: T6, ALK6/BMPR1B (Homo sapiens, UniProt O00238)
T6 construct: purchased Reaction Biology Corp
Summary of the method: as §1

IRR/INSRR = target: T7, IRR/INSRR (Homo sapiens, UniProt P14616)
T7 construct: purchased Reaction Biology Corp
Summary of the method: as §1

CDK1/cyclin A = target: T8, CDK1/cyclin A (Homo sapiens, UniProt P06493)
T8 construct: purchased Reaction Biology Corp
Summary of the method: as §1

WNK2 = target: T9, WNK2 (Homo sapiens, UniProt Q9Y3S1)
T9 construct: purchased Reaction Biology Corp
Summary of the method: as §1

CTK/MATK = target: T10, CTK/MATK (Homo sapiens, UniProt P42679)
T10 construct: purchased Reaction Biology Corp
T10 sequence (P42679 1-507): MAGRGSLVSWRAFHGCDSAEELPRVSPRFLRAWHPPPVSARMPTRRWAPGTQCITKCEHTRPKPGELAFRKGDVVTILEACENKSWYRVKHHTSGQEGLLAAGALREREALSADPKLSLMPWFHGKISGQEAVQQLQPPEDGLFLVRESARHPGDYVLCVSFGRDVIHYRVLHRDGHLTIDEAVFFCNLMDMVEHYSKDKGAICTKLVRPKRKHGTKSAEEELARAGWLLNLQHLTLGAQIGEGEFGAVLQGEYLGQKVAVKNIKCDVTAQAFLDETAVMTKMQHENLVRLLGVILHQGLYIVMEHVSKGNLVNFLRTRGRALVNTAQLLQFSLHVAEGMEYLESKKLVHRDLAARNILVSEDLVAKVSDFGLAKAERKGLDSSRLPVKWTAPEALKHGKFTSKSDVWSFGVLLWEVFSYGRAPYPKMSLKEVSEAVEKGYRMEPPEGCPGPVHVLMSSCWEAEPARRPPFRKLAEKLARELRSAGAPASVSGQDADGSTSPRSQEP
Summary of the method: as §1

FAK/PTK2 = target: T11, FAK/PTK2 (Homo sapiens, UniProt Q05397)
T11 construct: purchased Reaction Biology Corp
Summary of the method: as §1

CAMK1d = target: T12, CAMK1d (Homo sapiens, UniProt Q8IU85)
T12 construct: purchased Reaction Biology Corp
Summary of the method: as §1

P38b/MAPK11 = target: T13, P38b/MAPK11 (Homo sapiens, UniProt Q15759)
T13 construct: purchased Reaction Biology Corp
Summary of the method: as §1

[1] = read-out: % Enzyme Activity (relative to DMSO controls) Run 1
[2] = read-out: % Enzyme Activity (relative to DMSO controls) Run 2

T7 sequence (P14616 27-1297): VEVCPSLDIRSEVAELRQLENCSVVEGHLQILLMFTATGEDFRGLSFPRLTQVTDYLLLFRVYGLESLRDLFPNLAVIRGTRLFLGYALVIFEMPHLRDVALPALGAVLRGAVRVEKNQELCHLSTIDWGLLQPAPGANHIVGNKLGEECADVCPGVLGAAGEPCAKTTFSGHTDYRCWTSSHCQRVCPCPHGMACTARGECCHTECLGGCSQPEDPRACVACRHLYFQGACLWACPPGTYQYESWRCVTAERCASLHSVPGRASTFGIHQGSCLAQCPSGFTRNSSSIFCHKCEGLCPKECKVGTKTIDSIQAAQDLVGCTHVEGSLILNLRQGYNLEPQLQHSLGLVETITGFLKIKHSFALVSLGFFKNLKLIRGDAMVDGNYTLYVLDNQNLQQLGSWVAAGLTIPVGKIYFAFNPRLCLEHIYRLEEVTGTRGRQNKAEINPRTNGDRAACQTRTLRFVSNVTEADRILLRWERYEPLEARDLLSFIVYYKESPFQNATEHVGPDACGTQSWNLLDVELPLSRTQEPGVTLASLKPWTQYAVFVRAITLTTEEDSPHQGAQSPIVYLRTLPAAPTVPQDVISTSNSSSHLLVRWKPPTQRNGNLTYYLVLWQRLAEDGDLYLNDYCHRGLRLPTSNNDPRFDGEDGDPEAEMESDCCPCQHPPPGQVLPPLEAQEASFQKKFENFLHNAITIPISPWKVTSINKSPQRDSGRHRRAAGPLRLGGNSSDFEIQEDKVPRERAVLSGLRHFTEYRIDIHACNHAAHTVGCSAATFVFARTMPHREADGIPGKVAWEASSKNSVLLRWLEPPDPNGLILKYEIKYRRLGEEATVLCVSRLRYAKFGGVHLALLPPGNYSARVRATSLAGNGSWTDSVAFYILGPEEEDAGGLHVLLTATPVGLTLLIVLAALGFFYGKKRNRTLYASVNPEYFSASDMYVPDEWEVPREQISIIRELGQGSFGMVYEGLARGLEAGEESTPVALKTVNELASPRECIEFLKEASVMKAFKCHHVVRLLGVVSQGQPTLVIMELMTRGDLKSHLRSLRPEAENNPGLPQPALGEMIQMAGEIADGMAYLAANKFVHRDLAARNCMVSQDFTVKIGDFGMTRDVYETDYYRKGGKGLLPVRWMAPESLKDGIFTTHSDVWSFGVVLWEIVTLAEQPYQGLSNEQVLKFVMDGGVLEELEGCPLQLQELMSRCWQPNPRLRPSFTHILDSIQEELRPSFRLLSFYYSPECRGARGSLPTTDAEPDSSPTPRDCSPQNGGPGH
T2 sequence (Q16620 32-822): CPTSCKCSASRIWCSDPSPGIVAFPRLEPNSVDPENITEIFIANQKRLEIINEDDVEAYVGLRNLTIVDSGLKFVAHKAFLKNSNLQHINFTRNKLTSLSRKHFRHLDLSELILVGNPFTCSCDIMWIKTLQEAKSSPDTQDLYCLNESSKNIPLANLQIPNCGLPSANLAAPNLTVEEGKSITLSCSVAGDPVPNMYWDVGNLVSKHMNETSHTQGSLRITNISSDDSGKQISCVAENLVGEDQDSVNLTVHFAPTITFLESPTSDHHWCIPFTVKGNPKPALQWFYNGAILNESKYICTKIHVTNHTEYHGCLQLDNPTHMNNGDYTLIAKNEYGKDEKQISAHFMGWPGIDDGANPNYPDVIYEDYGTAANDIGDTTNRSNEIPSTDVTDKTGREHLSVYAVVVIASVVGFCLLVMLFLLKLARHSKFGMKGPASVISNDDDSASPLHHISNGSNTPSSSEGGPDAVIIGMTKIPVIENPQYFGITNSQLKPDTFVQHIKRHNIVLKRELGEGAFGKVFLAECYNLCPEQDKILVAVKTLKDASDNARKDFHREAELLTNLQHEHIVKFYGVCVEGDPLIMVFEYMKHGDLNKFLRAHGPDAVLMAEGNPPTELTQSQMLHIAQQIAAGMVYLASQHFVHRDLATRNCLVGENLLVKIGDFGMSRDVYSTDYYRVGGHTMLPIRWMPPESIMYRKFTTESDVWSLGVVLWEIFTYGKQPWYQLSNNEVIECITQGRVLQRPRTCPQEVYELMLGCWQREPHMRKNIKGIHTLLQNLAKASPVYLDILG
T11 sequence (Q05397 whole entry): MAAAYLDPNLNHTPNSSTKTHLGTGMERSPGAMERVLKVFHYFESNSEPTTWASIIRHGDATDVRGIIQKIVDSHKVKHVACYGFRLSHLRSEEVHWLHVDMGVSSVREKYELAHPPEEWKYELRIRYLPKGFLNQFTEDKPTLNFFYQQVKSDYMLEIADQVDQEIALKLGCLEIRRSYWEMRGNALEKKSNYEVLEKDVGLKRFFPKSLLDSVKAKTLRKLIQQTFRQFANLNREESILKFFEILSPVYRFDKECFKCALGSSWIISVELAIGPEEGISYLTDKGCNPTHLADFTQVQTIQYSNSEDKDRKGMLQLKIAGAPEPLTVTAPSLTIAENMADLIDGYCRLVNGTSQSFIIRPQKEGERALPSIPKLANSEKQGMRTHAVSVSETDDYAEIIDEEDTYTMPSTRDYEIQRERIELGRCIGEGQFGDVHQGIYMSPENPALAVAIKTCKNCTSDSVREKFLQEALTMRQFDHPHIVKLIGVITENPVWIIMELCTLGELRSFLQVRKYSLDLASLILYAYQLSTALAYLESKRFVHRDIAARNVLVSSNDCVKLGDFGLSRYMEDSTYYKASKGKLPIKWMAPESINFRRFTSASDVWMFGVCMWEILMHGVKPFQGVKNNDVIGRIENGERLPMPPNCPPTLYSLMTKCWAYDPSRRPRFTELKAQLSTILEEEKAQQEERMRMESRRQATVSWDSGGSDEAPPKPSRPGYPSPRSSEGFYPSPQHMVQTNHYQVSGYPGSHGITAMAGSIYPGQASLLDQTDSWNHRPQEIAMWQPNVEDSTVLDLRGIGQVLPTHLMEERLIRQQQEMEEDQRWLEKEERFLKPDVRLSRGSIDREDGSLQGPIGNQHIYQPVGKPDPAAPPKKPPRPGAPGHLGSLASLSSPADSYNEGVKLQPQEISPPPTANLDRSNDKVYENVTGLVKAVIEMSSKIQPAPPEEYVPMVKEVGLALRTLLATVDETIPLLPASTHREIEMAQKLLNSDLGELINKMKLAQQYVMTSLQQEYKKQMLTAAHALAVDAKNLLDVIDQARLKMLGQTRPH
T3 sequence (Q16513 whole entry): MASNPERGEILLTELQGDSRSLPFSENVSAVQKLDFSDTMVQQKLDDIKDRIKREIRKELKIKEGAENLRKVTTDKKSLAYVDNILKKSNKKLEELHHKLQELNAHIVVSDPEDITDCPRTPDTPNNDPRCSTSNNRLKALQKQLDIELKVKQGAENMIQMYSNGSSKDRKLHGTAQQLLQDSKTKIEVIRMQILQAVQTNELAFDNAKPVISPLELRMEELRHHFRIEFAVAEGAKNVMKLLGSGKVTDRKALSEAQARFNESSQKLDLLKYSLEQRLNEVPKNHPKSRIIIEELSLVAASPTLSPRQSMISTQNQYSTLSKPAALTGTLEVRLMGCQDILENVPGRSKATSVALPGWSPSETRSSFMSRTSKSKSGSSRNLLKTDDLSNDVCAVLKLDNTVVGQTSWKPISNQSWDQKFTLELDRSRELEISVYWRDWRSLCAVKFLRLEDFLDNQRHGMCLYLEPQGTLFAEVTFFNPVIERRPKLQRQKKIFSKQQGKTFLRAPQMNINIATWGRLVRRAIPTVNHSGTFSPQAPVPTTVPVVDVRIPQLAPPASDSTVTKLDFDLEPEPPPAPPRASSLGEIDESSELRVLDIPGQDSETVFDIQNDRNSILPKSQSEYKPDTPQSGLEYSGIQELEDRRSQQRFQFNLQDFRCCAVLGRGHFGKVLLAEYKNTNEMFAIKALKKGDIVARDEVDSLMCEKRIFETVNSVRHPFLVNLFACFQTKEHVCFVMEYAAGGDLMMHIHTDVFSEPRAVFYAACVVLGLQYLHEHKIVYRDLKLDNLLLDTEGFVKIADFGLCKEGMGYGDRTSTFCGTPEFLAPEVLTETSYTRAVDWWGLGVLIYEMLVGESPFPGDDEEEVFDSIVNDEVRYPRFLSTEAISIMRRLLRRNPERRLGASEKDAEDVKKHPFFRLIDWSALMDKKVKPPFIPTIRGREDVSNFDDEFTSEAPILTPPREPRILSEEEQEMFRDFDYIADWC
T4 sequence (Q8N5S9 whole entry): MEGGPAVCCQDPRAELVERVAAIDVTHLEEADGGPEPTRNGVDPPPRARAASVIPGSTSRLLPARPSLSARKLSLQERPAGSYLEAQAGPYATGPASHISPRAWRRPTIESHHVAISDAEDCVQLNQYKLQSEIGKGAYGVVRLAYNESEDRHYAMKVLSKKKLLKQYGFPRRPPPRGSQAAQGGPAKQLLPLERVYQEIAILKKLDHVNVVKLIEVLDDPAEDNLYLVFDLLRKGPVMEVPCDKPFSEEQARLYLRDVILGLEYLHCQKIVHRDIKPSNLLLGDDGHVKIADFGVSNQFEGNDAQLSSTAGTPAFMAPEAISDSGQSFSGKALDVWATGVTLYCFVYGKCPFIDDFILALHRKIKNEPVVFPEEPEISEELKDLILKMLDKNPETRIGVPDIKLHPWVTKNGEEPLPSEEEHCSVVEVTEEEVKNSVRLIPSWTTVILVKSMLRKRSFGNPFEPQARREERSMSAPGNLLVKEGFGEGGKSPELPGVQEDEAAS
T6 sequence (O00238 14-502): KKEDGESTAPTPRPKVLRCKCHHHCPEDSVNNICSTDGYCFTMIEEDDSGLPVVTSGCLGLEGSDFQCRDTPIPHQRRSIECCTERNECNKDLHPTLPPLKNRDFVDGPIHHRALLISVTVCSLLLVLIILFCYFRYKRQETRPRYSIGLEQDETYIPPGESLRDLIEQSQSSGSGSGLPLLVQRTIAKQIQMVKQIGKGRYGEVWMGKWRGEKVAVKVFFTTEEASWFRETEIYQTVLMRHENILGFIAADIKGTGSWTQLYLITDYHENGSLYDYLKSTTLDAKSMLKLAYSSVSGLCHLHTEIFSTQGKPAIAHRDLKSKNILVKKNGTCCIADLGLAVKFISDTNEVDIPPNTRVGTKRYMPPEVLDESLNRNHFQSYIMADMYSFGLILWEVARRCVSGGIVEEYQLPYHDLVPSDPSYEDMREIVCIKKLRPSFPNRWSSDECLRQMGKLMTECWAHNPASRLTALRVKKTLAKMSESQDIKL

C=CC(=O)Nc1cccc(Nc2nc(Nc3ccc(OCCOC)c(F)c3)ncc2F)c1 [Compound 2] was tested, and the inhibition at 3 µM (HIPK3) was -15.1%, the remaining activity at 3 µM (HIPK3; [1]) was 112% and the remaining activity at 3 µM (HIPK3; [2]) was 118%. For the same molecule, the inhibition at 3 µM (TRKB) was 14.2%, the remaining activity at 3 µM (TRKB; [1]) was 86.5% and the remaining activity at 3 µM (TRKB; [2]) was 85%. The inhibition at 3 µM (PKN2/PRK2) was 7.64%, the remaining activity at 3 µM (PKN2/PRK2; [1]) was 93.3% and the remaining activity at 3 µM (PKN2/PRK2; [2]) was 91.4%. The inhibition at 3 µM (CAMKK1) was 9.31%, the remaining activity at 3 µM (CAMKK1; [1]) was 93.5% and the remaining activity at 3 µM (CAMKK1; [2]) was 87.9%. It also gave an inhibition at 3 µM (STK16) of 78%, a remaining activity at 3 µM (STK16; [1]) of 22.9% and a remaining activity at 3 µM (STK16; [2]) of 21%. The inhibition at 3 µM (ALK6/BMPR1B) was -80.4%, the remaining activity at 3 µM (ALK6/BMPR1B; [1]) was 177% and the remaining activity at 3 µM (ALK6/BMPR1B; [2]) was 184%. The inhibition at 3 µM (IRR/INSRR) was 10.1%, the remaining activity at 3 µM (IRR/INSRR; [1]) was 88.9% and the remaining activity at 3 µM (IRR/INSRR; [2]) was 91%. For the same molecule, the inhibition at 3 µM (CDK1/cyclin A) was -18%, the remaining activity at 3 µM (CDK1/cyclin A; [1]) was 112% and the remaining activity at 3 µM (CDK1/cyclin A; [2]) was 124%. The inhibition at 3 µM (WNK2) was 6.19%, the remaining activity at 3 µM (WNK2; [1]) was 92.3% and the remaining activity at 3 µM (WNK2; [2]) was 95.3%. For the same molecule, the inhibition at 3 µM (CTK/MATK) was -3.03%, the remaining activity at 3 µM (CTK/MATK; [1]) was 102% and the remaining activity at 3 µM (CTK/MATK; [2]) was 104%. It also gave an inhibition at 3 µM (FAK/PTK2) of 37.1%, a remaining activity at 3 µM (FAK/PTK2; [1]) of 62.8% and a remaining activity at 3 µM (FAK/PTK2; [2]) of 62.9%. The inhibition at 3 µM (CAMK1d) was -3.36%, the remaining activity at 3 µM (CAMK1d; [1]) was 104% and the remaining activity at 3 µM (CAMK1d; [2]) was 103%. It also gave an inhibition at 3 µM (P38b/MAPK11) of -1.41%, a remaining activity at 3 µM (P38b/MAPK11; [1]) of 102% and a remaining activity at 3 µM (P38b/MAPK11; [2]) of 101%.
